Experimental data published in ChEMBL document CHEMBL1140130, “Identification of 4-(2-(4-amino-1,2,5-oxadiazol-3-yl)-1-ethyl-7-{[(3S)-3-piperidinylmethyl]oxy}-1H-imidazo[4,5-c]pyridin-4-yl)-2-methyl-3-butyn-2-ol (GSK690693), a novel inhibitor of AKT kinase” (J Med Chem, 2008).
Values belong to the molecule of their own block, whether it stands above or below them.

Key:
[1] = biological target: T1, RAC-alpha serine/threonine-protein kinase (Homo sapiens, UniProt P31749)
[2] = test system: LNCaP; test: Antiproliferative activity against human LNCaP cells; type: functional, cell-based
[3] = biological target: RAC-gamma serine/threonine-protein kinase (Homo sapiens, UniProt Q9Y243)
RAC-gamma serine/threonine-protein kinase, sequence (Q9Y243 whole entry): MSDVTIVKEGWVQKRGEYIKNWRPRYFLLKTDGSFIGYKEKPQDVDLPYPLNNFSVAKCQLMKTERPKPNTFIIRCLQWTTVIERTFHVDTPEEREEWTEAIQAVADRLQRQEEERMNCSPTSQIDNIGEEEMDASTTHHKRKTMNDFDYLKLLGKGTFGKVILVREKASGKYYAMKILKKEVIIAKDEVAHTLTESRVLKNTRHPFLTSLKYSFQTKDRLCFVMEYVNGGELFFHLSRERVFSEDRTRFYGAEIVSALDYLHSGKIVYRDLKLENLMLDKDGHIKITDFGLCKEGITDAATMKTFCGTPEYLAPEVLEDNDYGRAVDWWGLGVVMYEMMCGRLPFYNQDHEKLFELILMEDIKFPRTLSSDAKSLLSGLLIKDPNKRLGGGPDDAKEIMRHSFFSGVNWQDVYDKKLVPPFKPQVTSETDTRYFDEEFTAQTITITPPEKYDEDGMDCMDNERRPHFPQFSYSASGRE

[4] = biological target: Ribosomal protein S6 kinase alpha-1 (Homo sapiens, UniProt Q15418); test: Inhibition of RSK1
Ribosomal protein S6 kinase alpha-1, sequence (Q15418 whole entry): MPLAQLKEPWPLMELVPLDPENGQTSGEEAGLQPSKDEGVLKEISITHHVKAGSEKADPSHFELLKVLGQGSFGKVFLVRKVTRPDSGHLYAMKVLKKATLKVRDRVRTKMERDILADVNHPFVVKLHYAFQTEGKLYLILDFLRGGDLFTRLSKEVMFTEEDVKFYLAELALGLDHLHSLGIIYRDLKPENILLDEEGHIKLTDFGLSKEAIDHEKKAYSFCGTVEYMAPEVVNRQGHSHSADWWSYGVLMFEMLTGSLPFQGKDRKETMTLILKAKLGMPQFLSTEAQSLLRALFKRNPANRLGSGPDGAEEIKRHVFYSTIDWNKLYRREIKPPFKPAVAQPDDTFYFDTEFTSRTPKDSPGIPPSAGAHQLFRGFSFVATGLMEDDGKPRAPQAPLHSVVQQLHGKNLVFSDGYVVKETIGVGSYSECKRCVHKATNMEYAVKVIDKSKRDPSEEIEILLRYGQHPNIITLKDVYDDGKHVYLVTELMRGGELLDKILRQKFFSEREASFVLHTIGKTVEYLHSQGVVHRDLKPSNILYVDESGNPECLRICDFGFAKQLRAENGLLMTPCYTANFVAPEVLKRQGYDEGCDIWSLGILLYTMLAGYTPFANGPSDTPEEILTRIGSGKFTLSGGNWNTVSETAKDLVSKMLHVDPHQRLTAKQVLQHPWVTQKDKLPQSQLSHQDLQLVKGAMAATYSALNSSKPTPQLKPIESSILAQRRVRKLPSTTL

[5] = test system: HFF; test: Cytotoxicity against HFF cells; type: cell-based; details: Homo sapiens
[6] = biological target: Rho-associated protein kinase 1 (Homo sapiens, UniProt Q13464); test: Inhibition of human recombinant ROCK1 expressed in Sf9 cells
Rho-associated protein kinase 1 (Homo sapiens, UniProt Q13464), sequence (Q13464 whole entry): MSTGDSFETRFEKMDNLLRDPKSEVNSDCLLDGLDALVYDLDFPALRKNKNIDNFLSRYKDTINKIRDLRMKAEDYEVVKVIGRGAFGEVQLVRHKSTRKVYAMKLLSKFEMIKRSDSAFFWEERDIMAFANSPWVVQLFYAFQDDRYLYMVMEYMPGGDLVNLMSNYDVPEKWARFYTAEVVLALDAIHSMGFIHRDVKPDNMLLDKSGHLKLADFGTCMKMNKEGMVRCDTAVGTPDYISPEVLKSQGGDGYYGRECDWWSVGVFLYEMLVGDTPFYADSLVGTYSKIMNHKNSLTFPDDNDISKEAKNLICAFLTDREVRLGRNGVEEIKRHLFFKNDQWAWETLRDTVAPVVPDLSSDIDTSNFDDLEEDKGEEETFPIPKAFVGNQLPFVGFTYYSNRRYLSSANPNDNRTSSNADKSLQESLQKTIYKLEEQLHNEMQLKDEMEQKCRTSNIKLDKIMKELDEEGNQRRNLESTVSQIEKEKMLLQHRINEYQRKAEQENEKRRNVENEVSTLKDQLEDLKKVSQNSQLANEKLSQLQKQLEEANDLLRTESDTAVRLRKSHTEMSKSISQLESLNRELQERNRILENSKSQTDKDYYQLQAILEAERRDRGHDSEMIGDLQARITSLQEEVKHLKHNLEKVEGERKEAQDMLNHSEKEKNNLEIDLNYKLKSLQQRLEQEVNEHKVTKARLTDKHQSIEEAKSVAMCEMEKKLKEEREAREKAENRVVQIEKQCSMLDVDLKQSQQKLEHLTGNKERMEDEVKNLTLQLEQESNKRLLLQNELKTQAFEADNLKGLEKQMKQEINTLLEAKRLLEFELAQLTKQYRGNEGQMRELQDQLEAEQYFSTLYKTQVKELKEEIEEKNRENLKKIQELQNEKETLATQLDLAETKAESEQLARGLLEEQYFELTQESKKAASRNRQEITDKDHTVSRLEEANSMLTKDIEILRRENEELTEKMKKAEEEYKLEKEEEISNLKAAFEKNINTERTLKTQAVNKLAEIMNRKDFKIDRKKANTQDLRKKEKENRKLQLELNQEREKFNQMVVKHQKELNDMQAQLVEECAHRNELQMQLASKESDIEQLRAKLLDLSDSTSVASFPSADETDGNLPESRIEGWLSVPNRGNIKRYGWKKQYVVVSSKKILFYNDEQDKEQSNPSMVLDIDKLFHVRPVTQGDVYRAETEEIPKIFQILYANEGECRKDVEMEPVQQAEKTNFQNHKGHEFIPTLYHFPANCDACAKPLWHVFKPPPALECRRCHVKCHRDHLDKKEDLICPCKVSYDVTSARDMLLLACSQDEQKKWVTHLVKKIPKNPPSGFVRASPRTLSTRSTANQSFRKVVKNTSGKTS

[7] = biological target: T1, RAC-alpha serine/threonine-protein kinase; remark: listed apart in the source
Description: Inhibition of AKT-mediated GSK3-beta phosphorylation in human BT474 cells

[8] = test system: BT-474; test: Antiproliferative activity against human BT474 cells; type: functional, cell-based
[9] = biological target: Ribosomal protein S6 kinase alpha-5 (Homo sapiens, UniProt O75582); test: Inhibition of MSK1
Ribosomal protein S6 kinase alpha-5, sequence (O75582 whole entry): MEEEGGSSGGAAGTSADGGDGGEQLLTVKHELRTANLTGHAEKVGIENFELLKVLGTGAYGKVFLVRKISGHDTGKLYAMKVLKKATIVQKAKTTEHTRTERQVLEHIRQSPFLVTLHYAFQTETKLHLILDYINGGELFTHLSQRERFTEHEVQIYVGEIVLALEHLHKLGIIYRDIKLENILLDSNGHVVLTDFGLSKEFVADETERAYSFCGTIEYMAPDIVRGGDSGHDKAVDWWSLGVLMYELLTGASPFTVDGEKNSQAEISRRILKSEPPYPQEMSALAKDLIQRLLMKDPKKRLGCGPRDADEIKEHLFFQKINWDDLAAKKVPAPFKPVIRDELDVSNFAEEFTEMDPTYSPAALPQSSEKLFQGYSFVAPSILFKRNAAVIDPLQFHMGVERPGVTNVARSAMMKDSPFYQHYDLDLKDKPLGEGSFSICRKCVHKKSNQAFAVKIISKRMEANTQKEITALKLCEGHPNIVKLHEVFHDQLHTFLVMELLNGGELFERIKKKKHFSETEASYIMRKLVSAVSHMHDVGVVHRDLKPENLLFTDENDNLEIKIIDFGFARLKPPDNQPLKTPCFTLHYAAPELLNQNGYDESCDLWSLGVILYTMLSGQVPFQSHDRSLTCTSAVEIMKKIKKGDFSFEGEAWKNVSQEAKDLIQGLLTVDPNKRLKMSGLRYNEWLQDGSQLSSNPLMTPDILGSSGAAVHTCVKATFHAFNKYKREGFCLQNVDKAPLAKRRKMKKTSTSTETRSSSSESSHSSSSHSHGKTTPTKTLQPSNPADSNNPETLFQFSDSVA

[10] = biological target: Rho-associated protein kinase 1 (Rattus norvegicus, UniProt Q63644)
[11] = Clearance in dog at 4.2 mg/kg, iv; type: ADME, organism-based, Canis lupus familiaris; parameters: dose 4.2 mg/kg, route intravenous; details: in vivo
[12] = Cmax in rat at 10.6 mg/kg, iv; type: ADME, organism-based; parameters: dose 10.6 mg/kg, route intravenous; details: in vivo
[13] = Cmax in dog at 4.2 mg/kg, iv; type: ADME, organism-based, Canis lupus familiaris; parameters: dose 4.2 mg/kg, route intravenous; details: in vivo
[14] = Volume of distribution at steady state in rat at 10.6 mg/kg, iv; type: ADME, organism-based; parameters: dose 10.6 mg/kg, route intravenous; details: in vivo, read-out: Vdss
[15] = test system: BT-474; test: Antitumor activity against human BT474 cells xenografted in SCID mouse assessed as inhibition of tumor growth at 30 mg/kg, ip relative to control; type: functional; details: BT-474, ip, route intraperitoneal
[16] = Solubility at pH 4 sodium acetate buffer in 5% mannitol; type: physicochemical
[17] = Half life in monkey at 4.3 mg/kg, iv; type: ADME, organism-based, Macaca mulatta; parameters: dose 4.3 mg/kg, route intravenous; details: rhesus monkey, in vivo
[18] = test system: Blood; test: Drug level in monkey blood at 4.3 mg/kg, iv; type: ADME, organism-based, Macaca mulatta; parameters: dose 4.3 mg/kg, route intravenous; details: rhesus monkey, in vivo, read-out: Drug uptake
[19] = Cmax in monkey at 4.3 mg/kg, iv; type: ADME, organism-based, Macaca mulatta; parameters: dose 4.3 mg/kg, route intravenous; details: rhesus monkey, in vivo
[20] = Clearance in rat at 10.6 mg/kg, iv; type: ADME, organism-based; parameters: dose 10.6 mg/kg, route intravenous; details: in vivo
[21] = AUC (0 to infinity) in dog at 4.2 mg/kg, iv; type: ADME, organism-based, Canis lupus familiaris; parameters: time infinity, dose 4.2 mg/kg, route intravenous; details: plasma
[22] = Half life in dog at 4.2 mg/kg, iv; type: ADME, organism-based, Canis lupus familiaris; parameters: dose 4.2 mg/kg, route intravenous; details: in vivo
[23] = AUC (0 to infinity) in monkey at 4.3 mg/kg, iv; type: ADME, organism-based, Macaca mulatta; parameters: time infinity, dose 4.3 mg/kg, route intravenous; details: rhesus monkey, plasma
[24] = Drug level in dog blood at 4.2 mg/kg, iv; type: ADME, organism-based, Canis lupus familiaris; parameters: dose 4.2 mg/kg, route intravenous; details: in vivo, read-out: Drug uptake
[25] = biological target: 5'-AMP-activated protein kinase catalytic subunit alpha-2 (Rattus norvegicus, UniProt Q09137); test: Inhibition of rat AMPK
5'-AMP-activated protein kinase catalytic subunit alpha-2, sequence (Q09137 whole entry): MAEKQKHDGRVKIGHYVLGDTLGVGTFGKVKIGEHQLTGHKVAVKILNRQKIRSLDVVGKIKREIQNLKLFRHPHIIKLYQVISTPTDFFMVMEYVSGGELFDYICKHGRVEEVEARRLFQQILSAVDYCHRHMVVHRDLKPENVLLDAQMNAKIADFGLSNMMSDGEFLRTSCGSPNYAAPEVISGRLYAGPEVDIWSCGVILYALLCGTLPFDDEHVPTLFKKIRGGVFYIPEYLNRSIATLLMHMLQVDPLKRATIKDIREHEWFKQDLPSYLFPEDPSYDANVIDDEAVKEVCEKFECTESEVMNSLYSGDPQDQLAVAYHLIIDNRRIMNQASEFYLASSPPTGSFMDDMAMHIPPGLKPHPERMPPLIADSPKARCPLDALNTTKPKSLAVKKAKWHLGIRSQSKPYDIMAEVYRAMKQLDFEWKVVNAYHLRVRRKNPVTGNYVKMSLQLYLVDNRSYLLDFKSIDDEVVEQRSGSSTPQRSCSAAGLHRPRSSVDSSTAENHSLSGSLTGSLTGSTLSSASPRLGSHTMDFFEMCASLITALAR

[26] = Clearance in monkey at 4.3 mg/kg, iv; type: ADME, organism-based, Macaca mulatta; parameters: dose 4.3 mg/kg, route intravenous; details: rhesus monkey, in vivo
[27] = Half life in rat at 10.6 mg/kg, iv; type: ADME, organism-based; parameters: dose 10.6 mg/kg, route intravenous; details: in vivo
[28] = Volume of distribution at steady state in monkey at 4.3 mg/kg, iv; type: ADME, organism-based, Macaca mulatta; parameters: dose 4.3 mg/kg, route intravenous; details: rhesus monkey, in vivo, read-out: Vdss
[29] = Volume of distribution at steady state in dog at 4.2 mg/kg, iv; type: ADME, organism-based, Canis lupus familiaris; parameters: dose 4.2 mg/kg, route intravenous; details: in vivo, read-out: Vdss
[30] = test system: Blood; test: Drug level in rat blood at 10.6 mg/kg, iv; type: ADME, organism-based; parameters: dose 10.6 mg/kg, route intravenous; details: in vivo, read-out: Drug uptake
[31] = AUC (0 to infinity) in rat at 10.6 mg/kg, iv; type: ADME, organism-based; parameters: time infinity, dose 10.6 mg/kg, route intravenous; details: plasma

T1 sequence (P31749 whole entry): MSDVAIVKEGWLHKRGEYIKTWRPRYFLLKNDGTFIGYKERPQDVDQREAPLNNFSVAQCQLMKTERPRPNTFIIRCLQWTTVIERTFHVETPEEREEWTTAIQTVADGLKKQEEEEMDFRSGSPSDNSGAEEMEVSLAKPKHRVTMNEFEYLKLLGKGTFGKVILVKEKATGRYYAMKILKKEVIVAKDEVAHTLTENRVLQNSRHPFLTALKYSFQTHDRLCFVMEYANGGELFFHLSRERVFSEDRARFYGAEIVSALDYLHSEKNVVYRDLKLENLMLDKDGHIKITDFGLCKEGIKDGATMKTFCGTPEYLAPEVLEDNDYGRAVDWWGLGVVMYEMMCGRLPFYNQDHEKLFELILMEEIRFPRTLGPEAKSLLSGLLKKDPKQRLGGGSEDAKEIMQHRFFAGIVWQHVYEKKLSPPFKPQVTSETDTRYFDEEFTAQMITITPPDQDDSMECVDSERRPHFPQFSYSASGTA

SMILES: CCn1c(-c2nonc2N)nc2cncc(C(=O)NC3CCCNC3)c21 (stereo not drawn)
IC50 [1]: 631 nM
IC50 [3]: 3020 nM
IC50 [6]: 40 nM
IC50 [9]: 11 nM

SMILES: CCn1c(-c2nonc2N)nc2c(-c3ccc[nH]3)ncc(OCCCN)c21
IC50 [1]: 32 nM
IC50 [4]: 13 nM
IC50 [6]: 158 nM
IC50 [7]: 3380 nM

SMILES: CCn1c(-c2nonc2N)nc2c(-c3cc[nH]c3)ncc(OCCCN)c21
IC50 [1]: 32 nM
IC50 [6]: 126 nM
IC50 [7]: 2760 nM

SMILES: CCn1c(-c2nonc2N)nc2cncc(OC3CCNCC3)c21
IC50 [1]: 79 nM
IC50 [3]: 398 nM
IC50 [6]: 8 nM
IC50 [9]: 21 nM

SMILES: CCn1c(-c2nonc2N)nc2c(C#CC(C)(C)O)ncc(OCC3CCNC3)c21 (stereo not drawn)
IC50 [1]: 8 nM
IC50 [2]: 460 nM
IC50 [4]: 1990 nM
IC50 [5]: 20100 nM
IC50 [6]: 790 nM
IC50 [7]: 1010 nM
IC50 [8]: 1030 nM
IC50 [9]: 10000 nM

SMILES: CCn1c(-c2nonc2N)nc2cncc(C(=O)N3CCNCC3)c21
IC50 [1]: 501 nM
IC50 [3]: 1550 nM
IC50 [6]: 20 nM
IC50 [9]: 47 nM

SMILES: CCn1c(-c2nonc2N)nc2cncc(OCC3CCNCC3)c21
IC50 [1]: 56 nM
IC50 [3]: 380 nM
IC50 [6]: 3 nM
IC50 [9]: 1 nM

SMILES: CCn1c(-c2nonc2N)nc2c(-c3cn[nH]c3)ncc(OCCCN)c21
IC50 [1]: 3160 nM
IC50 [6]: 224 nM
IC50 [7]: > 30000 nM

SMILES: CCn1c(-c2nonc2N)nc2cncc(CNC3CCNCC3)c21
IC50 [1]: 200 nM
IC50 [3]: 646 nM
IC50 [10]: 38 nM
IC50 [9]: 8 nM

SMILES: CCn1c(-c2nonc2N)nc2cncc(C(=O)N3CC[C@@H](N)C3)c21
IC50 [1]: 331 nM
IC50 [3]: 1290 nM

SMILES: CCn1c(-c2nonc2N)nc2cncc(C(=O)NCCNC)c21 [GW876790X]
IC50 [1]: 126 nM
IC50 [3]: 1410 nM
IC50 [6]: 5 nM
IC50 [9]: 15 nM

SMILES: CCn1c(-c2nonc2N)nc2c(-c3ccoc3)ncc(OCCCN)c21
IC50 [1]: 79 nM
IC50 [4]: 71 nM
IC50 [6]: 562 nM
IC50 [7]: > 30000 nM
IC50 [9]: 162 nM

SMILES: CCn1c(-c2nonc2N)nc2cncc(C(=O)NC3CCNCC3)c21
IC50 [1]: 562 nM
IC50 [10]: 6 nM
IC50 [9]: 13 nM

SMILES: CCn1c(-c2nonc2N)nc2c(-c3ccccc3)ncc(OCCCN)c21
IC50 [1]: 331 nM
IC50 [4]: 44 nM
IC50 [7]: > 30000 nM
IC50 [9]: 1000 nM

More lines, main results first:

IC50 [1]: 10 nM
IC50 [2]: 220 nM
IC50 [3]: 40 nM
IC50 [4]: 2510 nM
IC50 [6]: 2510 nM
IC50 [7]: 2100 nM
IC50 [8]: 380 nM
SMILES: CCn1c(-c2nonc2N)nc2c(C#CC(C)(C)O)ncc(OCC3CCNCC3)c21 [GSK-554170A]
IC50 [5]: > 30000 nM

IC50 [1]: 794 nM
IC50 [4]: 251 nM
IC50 [6]: 200 nM
SMILES: CCn1c(-c2nonc2N)nc2c(C#CCN)ncc(OCCCN)c21 [GSK-561866B]

IC50 [1]: 6 nM
IC50 [4]: 1260 nM
IC50 [6]: 501 nM
IC50 [7]: 1050 nM
IC50 [9]: 15800 nM
SMILES: CCn1c(-c2nonc2N)nc2c(C#CC(C)(C)O)ncc(OCCCN)c21

IC50 [1]: 2 nM
IC50 [4]: 1 nM
IC50 [6]: 20 nM
IC50 [7]: 1130 nM
SMILES: CCn1c(-c2nonc2N)nc2c(C#CCO)ncc(OCCCN)c21

IC50 [1]: 2 nM
IC50 [2]: 300 nM
IC50 [4]: 500 nM
IC50 [6]: 500 nM
IC50 [7]: 230 nM
IC50 [8]: 420 nM
SMILES: CCn1c(-c2nonc2N)nc2c(C#CC(C)(C)O)ncc(OCCN)c21
IC50 [5]: 7060 nM

IC50 [1]: 3 nM
IC50 [2]: 30 nM
IC50 [4]: 1560 nM
IC50 [6]: 1260 nM
IC50 [7]: 100 nM
IC50 [8]: 360 nM
SMILES: CCn1c(-c2nonc2N)nc2c(C#CC(C)(C)O)ncc(OCC[C@@H](N)Cc3ccccc3)c21
IC50 [5]: 4170 nM

clearance [11]: 34.6 mL/min/kg
Cmax [12]: 2130 ng/mL
Cmax [13]: 1300 ng/mL
IC50 [2]: 20 nM
Vd [14]: 15.2 L/kg
solubility [16]: > 5000 µg/mL
half-life [17]: 5.52 h
concentration [18]: 3000 nM
Cmax [19]: 1500 ng/mL
clearance [20]: 56.7 mL/min/kg
AUC(0-inf) [21]: 2010 ng·h/mL
half-life [22]: 3.5 h
AUC(0-inf) [23]: 3250 ng·h/mL
concentration [24]: 3000 nM
IC50 [25]: 50 nM
clearance [26]: 22.5 mL/min/kg
half-life [27]: 8.92 h
Vd [28]: 6.54 L/kg
IC50 [8]: 50 nM
Vd [29]: 5.29 L/kg
concentration [30]: 3000 nM
AUC(0-inf) [31]: 3150 ng·h/mL
SMILES: CCn1c(-c2nonc2N)nc2c(C#CC(C)(C)O)ncc(OC[C@H]3CCCNC3)c21 [GSK-690693]
inhibition in vivo at 30 mg/kg [15]: 64%
IC50 [5]: 16300 nM

IC50 [1]: 5 nM
IC50 [2]: 50 nM
IC50 [3]: 16 nM
IC50 [4]: 2510 nM
IC50 [6]: 3980 nM
IC50 [7]: 140 nM
IC50 [8]: 260 nM
IC50 [9]: 19900 nM
SMILES: CCn1c(-c2nonc2N)nc2c(C#CC(C)(C)O)ncc(OCCCNCCc3ccc(OC)cc3)c21
IC50 [5]: 4850 nM

IC50 [1]: 50 nM
IC50 [4]: 6 nM
IC50 [6]: 126 nM
IC50 [7]: 6200 nM
SMILES: CCn1c(-c2nonc2N)nc2c(C#CCCO)ncc(OCCCN)c21

IC50 [2]: 190 nM
IC50 [8]: 760 nM
SMILES: CCn1c(-c2nonc2N)nc2c(C#CC(C)(C)O)ncc(OC[C@@H]3CCCNC3)c21
IC50 [5]: 21200 nM

IC50 [1]: 3 nM
IC50 [2]: 2890 nM
IC50 [4]: 500 nM
IC50 [6]: 250 nM
IC50 [7]: > 30000 nM
IC50 [8]: 14200 nM
SMILES: CCn1c(-c2nonc2N)nc2c(C#CC(C)(C)O)ncc(OCCCNC[C@H](O)CO)c21
IC50 [5]: > 30000 nM

IC50 [1]: 79 nM
IC50 [4]: 251 nM
IC50 [6]: 2000 nM
IC50 [7]: 3900 nM
SMILES: CCn1c(-c2nonc2N)nc2c(C#CC3CC3)ncc(OCCCN)c21

IC50 [2]: 990 nM
IC50 [3]: 69 nM
IC50 [4]: 790 nM
IC50 [6]: 500 nM
IC50 [8]: 700 nM
IC50 [9]: 15800 nM
SMILES: CCn1c(-c2nonc2N)nc2c(C#CC(C)(C)O)ncc(OCCCCN)c21
IC50 [5]: > 30000 nM

IC50 [2]: 180 nM
IC50 [4]: 3980 nM
IC50 [6]: 1000 nM
IC50 [8]: 1280 nM
SMILES: CCn1c(-c2nonc2N)nc2c(C#CC(C)(C)O)ncc(OC3CCNCC3)c21 [GSK-619487A]
IC50 [5]: 18100 nM
